Measured values published in US11498899B2, “Nitrone herbicides” (FMC Corporation, priority 2016, dated 2022).

What was measured:
[1] = tested on: barnyardgrass (Echinochloa crus-galli); experiment: Test B flooded paddy test, visual rating 0-100; conditions: Flood, 250 g ai/ha, applied to paddy water, rated after 13 to 15 days
[2] = tested on: ducksalad (Heteranthera limosa); experiment: Test B flooded paddy test, visual rating 0-100; conditions: Flood, 250 g ai/ha, applied to paddy water, rated after 13 to 15 days
kochia (Kochia scoparia) [3] = experiment: Test A postemergence, visual injury rating 0-100; assay type: in vivo; conditions: 0 to 100 scale
corn (Zea mays) = experiment: Test A postemergence, visual injury rating 0-100; assay type: in vivo; conditions: 0 to 100 scale
[4] = tested on: ryegrass, Italian (Italian ryegrass, Lolium multiflorum); experiment: Test A postemergence, visual injury rating 0-100; assay type: in vivo; conditions: 0 to 100 scale
[5] = tested on: blackgrass (Alopecurus myosuroides); experiment: Test A postemergence, visual injury rating 0-100; assay type: in vivo; conditions: 0 to 100 scale
[6] = tested on: pigweed (Amaranthus retroflexus); experiment: Test A postemergence, visual injury rating 0-100; assay type: in vivo; conditions: 0 to 100 scale
[7] = tested on: foxtail, giant (giant foxtail, Setaria faberii); experiment: Test A postemergence, visual injury rating 0-100; assay type: in vivo; conditions: 0 to 100 scale
[8] = tested on: barnyardgrass (Echinochloa crus-galli); experiment: Test A postemergence, visual injury rating 0-100; assay type: in vivo; conditions: 0 to 100 scale
[9] = tested on: galium (catchweed bedstraw, Galium aparine); experiment: Test A postemergence, visual injury rating 0-100; assay type: in vivo; conditions: 0 to 100 scale
[10] = tested on: ragweed (common ragweed, Ambrosia elatior); experiment: Test A postemergence, visual injury rating 0-100; assay type: in vivo; conditions: 0 to 100 scale
[11] = tested on: wheat (Triticum aestivum); experiment: Test A postemergence, visual injury rating 0-100; assay type: in vivo; conditions: 0 to 100 scale
kochia (Kochia scoparia) [12] = experiment: Test A preemergence, visual injury rating 0-100; assay type: in vivo
[13] = tested on: ryegrass, Italian (Italian ryegrass, Lolium multiflorum); experiment: Test A preemergence, visual injury rating 0-100; assay type: in vivo; conditions: 500 g ai/ha
[14] = tested on: pigweed (Amaranthus retroflexus); experiment: Test A preemergence, visual injury rating 0-100; assay type: in vivo
[15] = tested on: foxtail, giant (giant foxtail, Setaria faberii); experiment: Test A preemergence, visual injury rating 0-100; assay type: in vivo
[16] = tested on: ragweed (common ragweed, Ambrosia elatior); experiment: Test A preemergence, visual injury rating 0-100; assay type: in vivo
rice (Oryza sativa) = experiment: Test B flooded paddy test, visual rating 0-100 (0 no effect, 100 complete control); conditions: Flood, 250 g ai/ha, applied to paddy water, rated after 13 to 15 days
[17] = tested on: barnyardgrass (Echinochloa crus-galli); experiment: Test A preemergence, visual injury rating 0-100 (0 no effect, 100 complete control); assay type: in vivo

SMILES | Barnyardgrass plant response rating (0 to 100 scale) [1] | Ducksalad plant response rating (0 to 100 scale) [2] | Kochia plant response rating (kochia (Kochia scoparia) [3]; 125 g ai/ha) | Kochia plant response rating (kochia (Kochia scoparia) [3]; 500 g ai/ha) | Corn plant response rating (corn (Zea mays); 125 g ai/ha) | Corn plant response rating (corn (Zea mays); 500 g ai/ha) | Ryegrass, Italian plant response rating ([4]; 125 g ai/ha) | Ryegrass, Italian plant response rating ([4]; 500 g ai/ha) | Blackgrass plant response rating ([5]; 125 g ai/ha) | Blackgrass plant response rating ([5]; 500 g ai/ha) | Pigweed plant response rating ([6]; 125 g ai/ha) | Pigweed plant response rating ([6]; 500 g ai/ha) | Foxtail, Giant plant response rating ([7]; 125 g ai/ha) | Foxtail, Giant plant response rating ([7]; 500 g ai/ha) | Barnyardgrass plant response rating ([8]; 125 g ai/ha) | Barnyardgrass plant response rating ([8]; 500 g ai/ha) | Galium plant response rating ([9]; 125 g ai/ha) | Galium plant response rating ([9]; 500 g ai/ha) | Ragweed plant response rating ([10]; 125 g ai/ha) | Ragweed plant response rating ([10]; 500 g ai/ha) | other results
CCc1cc(CC)cc(C2CC(C)=[N+]([O-])C2C(=O)Nc2cccc(F)c2F)c1 (racemic) [Compound 109] | 0 | 0 | 0 | 0 | 80 | 90 | 70 | 80 | 80 | 90 | 0 | 0 | 80 | 90 | 50 | 80 | 20 | 20 | 0 | 0 | Wheat plant response rating ([11]; 125 g ai/ha): 20; Wheat plant response rating ([11]; 500 g ai/ha): 80; Kochia plant response rating (0 to 100 scale) (kochia (Kochia scoparia) [12]; 125 g ai/ha): 0; Kochia plant response rating (0 to 100 scale) (kochia (Kochia scoparia) [12]; 500 g ai/ha): 50; Ryegrass, Italian plant response rating (0 to 100 scale) [13]: 100; Pigweed plant response rating (0 to 100 scale) ([14]; 125 g ai/ha): 0; Pigweed plant response rating (0 to 100 scale) ([14]; 500 g ai/ha): 0; Foxtail, Giant plant response rating (0 to 100 scale) ([15]; 125 g ai/ha): 90; Foxtail, Giant plant response rating (0 to 100 scale) ([15]; 500 g ai/ha): 90; Ragweed plant response rating (0 to 100 scale) ([16]; 125 g ai/ha): 0; Ragweed plant response rating (0 to 100 scale) ([16]; 500 g ai/ha): 30; Rice plant response rating (0 to 100 scale) (rice (Oryza sativa)): 0; Barnyardgrass plant response rating (0 to 100 scale) ([17]; 125 g ai/ha): 90; Barnyardgrass plant response rating (0 to 100 scale) ([17]; 500 g ai/ha): 100
CC1=[N+]([O-])C(C(=O)Nc2cccc(F)c2F)C(c2cc(C(F)(F)F)cc(C(F)(F)F)c2)C1 (racemic) [Compound 110] | 0 | 0 | 0 | 50 | 80 | 90 | 70 | 80 | 80 | 90 | 0 | 20 | 80 | 90 | 40 | 90 | 50 | 70 | 0 | 70 | Wheat plant response rating ([11]; 125 g ai/ha): 50; Wheat plant response rating ([11]; 500 g ai/ha): 80; Kochia plant response rating (0 to 100 scale) (kochia (Kochia scoparia) [12]; 125 g ai/ha): 0; Kochia plant response rating (0 to 100 scale) (kochia (Kochia scoparia) [12]; 500 g ai/ha): 20; Ryegrass, Italian plant response rating (0 to 100 scale) [13]: 90; Pigweed plant response rating (0 to 100 scale) ([14]; 125 g ai/ha): 0; Pigweed plant response rating (0 to 100 scale) ([14]; 500 g ai/ha): 60; Foxtail, Giant plant response rating (0 to 100 scale) ([15]; 125 g ai/ha): 90; Foxtail, Giant plant response rating (0 to 100 scale) ([15]; 500 g ai/ha): 90; Ragweed plant response rating (0 to 100 scale) ([16]; 125 g ai/ha): 50; Ragweed plant response rating (0 to 100 scale) ([16]; 500 g ai/ha): 80; Rice plant response rating (0 to 100 scale) (rice (Oryza sativa)): 0; Barnyardgrass plant response rating (0 to 100 scale) ([17]; 125 g ai/ha): 90; Barnyardgrass plant response rating (0 to 100 scale) ([17]; 500 g ai/ha): 90
